According to ChEMBL document CHEMBL1134173, “FR131535, a novel water-soluble echinocandin-like lipopeptide: synthesis and biological properties” (Bioorg Med Chem Lett, 2001):
In brackets after ≈: the same amount, converted by molar mass. Numbered stars: 1 amine (or outer) side, 2 acyl side, 3 side chain; on linkers, the order of the positions; unused ones are H or OH. Bridge positions count the residues as written; N and C are the ends. Square brackets hold non-standard residues; d marks the D form. Peptide text beside a SMILES is read from it. * marks the point of attachment. hTyr(3S-OH,4S-OH,3'-OSO3H) = N[C@H](C(=O)O)[C@H](O)[C@@H](O)c1ccc(O)c(OS(=O)(=O)O)c1; Orn(4R-OH,5R-OH) = O=C([C@H](C[C@@H](O)[C@@H](O)N[*:3])N[*:1])[*:2]; Orn(4R-OH,5S-OH) = O=C([C@H](C[C@@H](O)[C@H](O)N[*:3])N[*:1])[*:2]; hTyr(3S-OH,4S-OH) = N[C@H](C(=O)O)[C@H](O)[C@@H](O)c1ccc(O)cc1; Pro(3S-OH,4S-Me) = C[C@H]1CN[C@H](C(=O)O)[C@H]1O; Benzoyl(4-octyloxy) = CCCCCCCCOc1ccc(C(=O)*)cc1; Gln(3R-OH) = NC(=O)C[C@@H](O)[C@H](N)C(=O)O; Palmitoyl = CCCCCCCCCCCCCCCC(=O)*; Hyp = O=C(O)[C@@H]1C[C@@H](O)CN1

Experiments:
Pneumocystis carinii [1] = experiment: Evaluated for inhibitory growth of Pneumocystis carinii cysts in lungs administered at the dose of 10 mg/kg expressed as number of cysts/lungs for 8 weeks; type: functional
Pneumocystis carinii [2] = experiment: Evaluated for inhibitory growth of Pneumocystis carinii cysts in lungs administered at the dose of 10 mg/kg expressed as number of cysts/lungs for 3 weeks; type: functional
Aspergillus niger = experiment: In vitro antifungal activity against Aspergillus niger ATCC 9642 at 37 degrees C for 22h; type: functional, organism-based; conditions: ATCC 9642, 22 h
Aspergillus fumigatus = experiment: In vitro antifungal activity against Aspergillus fumigatus FD050 at 37 degrees C for 22h; type: functional, organism-based
Candida albicans [3] = experiment: In vivo effective dose for antifungal activity on sc administration in female mice infected with 2.5*10e6 cells/mL of Candida albicans at day 10; type: functional
Candida albicans [4] = experiment: In vivo effective dose for antifungal activity on sc administration in female mice infected with 2.5*10e6 cells/mL of Candida albicans at day 14; type: functional
Pichia kudriavzevii = experiment: In vitro antifungal activity against Candida krusei YC109 at 37 degrees C for 22h; type: functional, organism-based
Candida albicans [5] = experiment: Compound was tested for inhibitory activity against 1,3-beta-glucan synthase from Candida albicans 6406; type: functional
Candida albicans [6] = experiment: In vitro antifungal activity against Candida albicans FP578 at 37 degrees C for 22h; type: functional, organism-based
Candida albicans [7] = experiment: In vitro antifungal activity against Candida albicans FP582 at 37 degrees C for 22h; type: functional, organism-based
Candida albicans [8] = experiment: In vitro antifungal activity against Candida albicans FP629 at 37 degrees C for 22h; type: functional, organism-based
Candida albicans [9] = experiment: In vitro antifungal activity against Candida albicans FP633 at 37 degrees C for 22h; type: functional, organism-based
Candida tropicalis = experiment: In vitro antifungal activity against Candida tropicalis YC118 at 37 degrees C for 22h; type: functional, organism-based
Cryptococcus neoformans [10] = experiment: In vitro antifungal activity against Cryptococcus neoformans YC203 at 30 degrees C for 48 hr; type: functional, organism-based
Cyberlindnera jadinii = experiment: In vitro antifungal activity against Candida utilis YC123 at 37 degrees C for 22h; type: functional, organism-based; conditions: Williopsis jadinii
Mus musculus = species on record: Mus musculus; experiment: Minimum lytic concentration that lysed red blood cells in mouse; type: functional
Homo sapiens [11] = species on record: Homo sapiens; experiment: Lytic concentration for hemolytic activity in human by akaishi method; type: functional
Homo sapiens [12] = species on record: Homo sapiens; experiment: Minimum lytic concentration that lysed red blood cells in human; type: functional
Candida albicans [13] = experiment: In vitro inhibitory concentration required for antifungal activity against Candida albicans FP578 at 37 degrees C for 22h; type: functional, organism-based
Cryptococcus neoformans [14] = experiment: In vitro inhibitory concentration degrees C for 48 hr; type: functional, organism-based

Work on COc1cc(Cc2cnc(N)nc2N)cc(OC)c1OC.Cc1cc(NS(=O)(=O)c2ccc(N)cc2)no1 [CO-TRIMOXAZOLE] yielded an Activity (Pneumocystis carinii [1]) of 4.1 and an Activity (Pneumocystis carinii [2]) of less than 1.8.

Compound CCCCCCCCCCCCCCCC(=O)N[C@H]1C[C@@H](O)[C@H](O)NC(=O)[C@@H]2[C@@H](O)[C@@H](C)CN2C(=O)[C@H]([C@H](O)CC(N)=O)NC(=O)[C@H]([C@H](O)[C@@H](O)c2ccc(O)c(OS(=O)(=O)O)c2)NC(=O)[C@@H]2C[C@@H](O)CN2C(=O)[C@H]([C@@H](C)O)NC1=O (Palmitoyl-[Orn(4R-OH,5S-OH)]T[Hyp][hTyr(3S-OH,4S-OH,3'-OSO3H)][Gln(3R-OH)][Pro(3S-OH,4S-Me)]; lactam 1-C) has an IC50 (Aspergillus niger) of 0.004 µg/mL (≈ 0.0034 µM), an IC50 (Aspergillus fumigatus) of 1.3 µg/mL (≈ 1.11 µM) and an ED50 (Candida albicans [3]) of 1.1 mg/kg. The ED50 (Candida albicans [4]) was 2.9 mg/kg, the IC50 (Pichia kudriavzevii) was 0.14 µg/mL (≈ 0.119 µM) and the IC50 (Candida albicans [5]) was 0.7 µg/mL (≈ 0.596 µM). For the same compound, the IC50 (Candida albicans [6]) was 0.025 µg/mL (≈ 0.0213 µM), the IC50 (Candida albicans [7]) was 0.004 µg/mL (≈ 0.0034 µM) and the IC50 (Candida albicans [8]) was 0.018 µg/mL (≈ 0.0153 µM). It also gave an IC50 (Candida albicans [9]) of 0.018 µg/mL (≈ 0.0153 µM), an IC50 (Candida tropicalis) of 0.09 µg/mL (≈ 0.0766 µM) and an IC50 (Cryptococcus neoformans [10]) greater than 2.5 µg/mL. It also gave an IC50 (Cyberlindnera jadinii) of 0.03 µg/mL (≈ 0.0255 µM), an MLC (Mus musculus) of 31 µg/mL (≈ 26.4 µM) and an Activity (Pneumocystis carinii [1]) of 2. The Activity (Pneumocystis carinii [2]) was less than 1.8, the LC30 (Homo sapiens [11]) was 160 µg/mL (≈ 136 µM) and the MLC (Homo sapiens [12]) was 31 µg/mL (≈ 26.4 µM).

Compound OC(Cn1cncn1)(Cn1cncn1)c1ccc(F)cc1F [FLUCONAZOLE] has an ED50 (Candida albicans [3]) of less than 1 mg/kg and an ED50 (Candida albicans [4]) of 2.4 mg/kg.

For C[C@@H]([C@H](N)C(=O)N[C@H](C(=O)O)[C@H]1O[C@@H](n2cc(C=O)nc2O)[C@H](O)[C@@H]1O)[C@H](O)c1ccc(O)cn1, the IC50 (Candida albicans [5]) was greater than 100 µg/mL.

In the case of C[C@@H]1[C@H](O)[C@@H](C)/C=C/C=C/C=C/C=C/C=C/C=C/C=C/[C@H](O[C@@H]2O[C@H](C)[C@@H](O)[C@H](N)[C@@H]2O)C[C@@H]2O[C@](O)(C[C@@H](O)C[C@@H](O)[C@H](O)CC[C@@H](O)C[C@@H](O)CC(=O)O[C@H]1C)C[C@H](O)[C@H]2C(=O)O [AMPHOTERICIN B], the IC50 (Aspergillus niger) is reported as 1.9 µg/mL (≈ 2.06 µM), the IC50 (Aspergillus fumigatus) is reported as 0.62 µg/mL (≈ 0.671 µM) and the IC50 (Candida albicans [13]) is reported as 0.39 µg/mL (≈ 0.422 µM). The IC50 (Pichia kudriavzevii) was 1.6 µg/mL (≈ 1.73 µM), the IC50 (Candida albicans [7]) was 0.55 µg/mL (≈ 0.595 µM) and the IC50 (Candida albicans [8]) was 0.39 µg/mL (≈ 0.422 µM). For the same compound, the IC50 (Candida albicans [9]) was 0.39 µg/mL (≈ 0.422 µM), the IC50 (Candida tropicalis) was 0.62 µg/mL (≈ 0.671 µM) and the IC50 (Cryptococcus neoformans [10]) was 0.39 µg/mL (≈ 0.422 µM). For the same compound, the IC50 (Cyberlindnera jadinii) was 0.47 µg/mL (≈ 0.509 µM).

CCCCCCCCOc1ccc(C(=O)N[C@H]2C[C@@H](O)[C@@H](O)NC(=O)[C@@H]3[C@@H](O)[C@@H](C)CN3C(=O)[C@H]([C@@H](C)O)NC(=O)[C@H]([C@H](O)[C@@H](O)c3ccc(O)cc3)NC(=O)[C@@H]3C[C@@H](O)CN3C(=O)[C@H]([C@@H](C)O)NC2=O)cc1 [CILOFUNGIN] ({Benzoyl(4-octyloxy)}-[Orn(4R-OH,5R-OH)]T[Hyp][hTyr(3S-OH,4S-OH)]T[Pro(3S-OH,4S-Me)]; lactam 1-C) gave an IC50 (Aspergillus niger) of 0.08 µg/mL (≈ 0.0777 µM), an IC50 (Aspergillus fumigatus) greater than 0.003 µg/mL and an ED50 (Candida albicans [3]) of 5 mg/kg. For the same compound, the ED50 (Candida albicans [4]) was greater than 10 mg/kg, the IC50 (Candida albicans [13]) was 0.36 µg/mL (≈ 0.349 µM) and the IC50 (Pichia kudriavzevii) was 3.2 µg/mL (≈ 3.11 µM). The IC50 (Candida albicans [7]) was 0.24 µg/mL (≈ 0.233 µM), the IC50 (Candida albicans [8]) was 0.47 µg/mL (≈ 0.456 µM) and the IC50 (Candida albicans [9]) was 0.39 µg/mL (≈ 0.379 µM). The IC50 (Candida tropicalis) was 0.94 µg/mL (≈ 0.912 µM), the IC50 (Cryptococcus neoformans [14]) was greater than 2.5 µg/mL and the IC50 (Cyberlindnera jadinii) was 0.94 µg/mL (≈ 0.912 µM). For the same compound, the MLC (Mus musculus) was greater than 500 µg/mL, the LC30 (Homo sapiens [11]) was greater than 500 µg/mL and the MLC (Homo sapiens [12]) was greater than 1000 µg/mL.

Work on CCCCCCCCOc1ccc(C(=O)N[C@H]2C[C@@H](O)[C@H](O)NC(=O)[C@@H]3[C@@H](O)[C@@H](C)CN3C(=O)[C@H]([C@H](O)CC(N)=O)NC(=O)[C@H]([C@H](O)[C@@H](O)c3ccc(O)c(OS(=O)(=O)[O-])c3)NC(=O)[C@@H]3C[C@@H](O)CN3C(=O)[C@H]([C@@H](C)O)NC2=O)cc1.[Na+] [FR-131535] ({Benzoyl(4-octyloxy)}-[Orn(4R-OH,5S-OH)]T[Hyp][hTyr(3S-OH,4S-OH,3'-OSO3H)][Gln(3R-OH)][Pro(3S-OH,4S-Me)]; lactam 1-C) yielded an IC50 (Aspergillus niger) of 0.16 µg/mL, an IC50 (Aspergillus fumigatus) of less than 0.003 µg/mL and an ED50 (Candida albicans [3]) of 3 mg/kg. The ED50 (Candida albicans [4]) was 3.5 mg/kg, the IC50 (Pichia kudriavzevii) was 1.9 µg/mL and the IC50 (Candida albicans [5]) was 2.8 µg/mL. For the same compound, the IC50 (Candida albicans [6]) was 0.31 µg/mL, the IC50 (Candida albicans [7]) was 0.39 µg/mL and the IC50 (Candida albicans [8]) was 0.47 µg/mL. It also gave an IC50 (Candida albicans [9]) of 0.47 µg/mL, an IC50 (Candida tropicalis) of 0.47 µg/mL and an IC50 (Cryptococcus neoformans [10]) greater than 2.5 µg/mL. For the same compound, the IC50 (Cyberlindnera jadinii) was 1.35 µg/mL, the MLC (Mus musculus) was greater than 500 µg/mL and the Activity (Pneumocystis carinii [1]) was 2.3. The Activity (Pneumocystis carinii [2]) was less than 1.8, the LC30 (Homo sapiens [11]) was greater than 500 µg/mL and the MLC (Homo sapiens [12]) was greater than 1000 µg/mL.
